Each compound was assayed against BIR3 domain of human cIAP1 (amino acids 256 to 363; cIAP1 BIR3) (Homo sapiens (Human), UniProt Q13490) (assay: cIAP1 BIR3 binding assay (DELFIA)). Conditions: BIR3 domain 10 nM, SMAC peptide 10 nM; values represent the (S)-isomers; * = racemic compound; read-out: cIAP1 BIR-3 IC50.
Experimental: XIAP BIR3 and cIAP1 BIR3 Binding Assays (DELFIA)
Peptide […]-Lys(Biotin), representing the N-terminus of mature human SMAC (SMAC peptide), was used as interaction partner in the protein-peptide interaction assay.
BIR3 domains (10 nM) were incubated with SMAC peptide (10 nM) in assay buffer (50 mM Tris, 120 mM NaCl, 0.1% BSA, 1 mM DTT, 0.05% TritonX100) for one hour at room temperature in the presence of inhibitory compounds. The assay mixture was transferred to a streptavidin coated plate and incubated for one hour at room temperature to allow binding of the biotinylated peptide and associated BIR3 domains to the plate. After several washing steps Eu labeled anti-GST antibody (e.g. Perkin Elmer DELFIA Eu-N1-antiGST AD0250) was added to detect BIR3 domain-SMAC peptide interactions m according to Perkin Elmer's instructions. […] Time resolved Europium fluoresecence was measured in a Wallac Victor using Standard assay settings.
DELFIA assay results were plotted against compound concentrations and Software GraphPad Prizm was used to calculate half maximal inhibitory concentrations (IC50 values).

Sequence of BIR3 domain of human cIAP1 (amino acids 256 to 363; cIAP1 BIR3) (Q13490 256-363): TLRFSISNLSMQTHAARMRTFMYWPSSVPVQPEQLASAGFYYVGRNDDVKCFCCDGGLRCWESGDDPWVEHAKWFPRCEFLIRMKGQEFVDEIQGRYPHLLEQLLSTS

Row | IC50 [nM] | SMILES
1 | 36 | CNC(C)C(=O)Nc1cc(-c2c(C)ccc3ncccc23)cc(NC(=O)c2ccc(C#N)cn2)n1 (stereo not shown) [Example 30, 5-cyano-N-{6-[2-(methylamino)propanamido]-4-(6-methylquinolin-5-yl)pyridin-2-yl}pyridine-2-carboxamide]
2 | 52 | CNC(C)C(=O)Nc1cc(-c2c(C)ccc3ncccc23)cc(NC(=O)c2ncc3ccccc3n2)n1 (stereo not shown) [Example 31, N-{6-[2-(methylamino)propanamido]-4-(6-methylquinolin-5-yl)pyridin-2-yl}quinazoline-2-carboxamide]
3 | 53 | CNC(C)C(=O)Nc1cc(-c2c(C)ccc3ncccc23)cc(NC(=O)c2ccc(F)cn2)n1 (stereo not shown) [Example 32, 5-fluoro-N-{6-[2-(methylamino)propanamido]-4-(6-methylquinolin-5-yl)pyridin-2-yl}pyridine-2-carboxamide]
4 | 59 | CNC(C)C(=O)Nc1cc(-c2c(C)ccc3ncccc23)cc(NC(=O)c2ccc(OC)cn2)n1 (stereo not shown) [Example 33, 5-methoxy-N-{6-[2-(methylamino)propanamido]-4-(6-methylquinolin-5-yl)pyridin-2-yl}pyridine-2-carboxamide]
5 | 104 | CNC(C)C(=O)Nc1cc(-c2c(C)ccc3ncccc23)cc(NC(=O)c2cnc(C)cn2)n1 (stereo not shown) [Example 34, 5-methyl-N-{6-[2-(methylamino)propanamido]-4-(6-methylquinolin-5-yl)pyridin-2-yl}pyrazine-2-carboxamide]
6 | 132 | CNC(C)C(=O)Nc1cc(-c2c(C)ccc3ncccc23)cc(NC(=O)c2cc3ccccc3cn2)n1 (stereo not shown) [Example 35, N-{6-[2-(methylamino)propanamido]-4-(6-methylquinolin-5-yl)pyridin-2-yl}isoquinoline-3-carboxamide]
7 | 170 | CNC(C)C(=O)Nc1cc(-c2c(C)ccc3ncccc23)cc(NC(=O)c2ccc3ccccc3n2)n1 (stereo not shown) [Example 36, N-{6-[2-(methylamino)propanamido]-4-(6-methylquinolin-5-yl)pyridin-2-yl}quinoline-2-carboxamide]
8 | 428 | CNC(C)C(=O)Nc1cc(-c2c(C)ccc3ncccc23)cc(NC(=O)c2ccncn2)n1 (stereo not shown) [Example 37, N-{6-[2-(methylamino)propanamido]-4-(6-methylquinolin-5-yl)pyridin-2-yl)pyrimidine-4-carboxamide]
9 | 514 | CNC(C)C(=O)Nc1cc(-c2c(C)ccc3ncccc23)cc(NC(=O)c2cc3ccccc3o2)n1 (stereo not shown) [Example 38, N-{6-[2-(methylamino)propanamido]-4-(6-methylquinolin-5-yl)pyridin-2-yl)-1-benzofuran-2-carboxamide]
10 | 553 | CNC(C)C(=O)Nc1cc(-c2c(C)ccc3ncccc23)cc(NC(=O)c2ccccn2)n1 (stereo not shown) [Example 39, N-{6-[2-(methylamino)propanamido]-4-(6-methylquinolin-5-yl)pyridin-2-yl}pyridine-2-carboxamide]
11 | 598 | CNC(C)C(=O)Nc1cc(-c2c(C)ccc3ncccc23)cc(NC(=O)c2cccc(C)n2)n1 (stereo not shown) [Example 40, 6-methyl-N-{6-[2-(methylamino)propanamido]-4-(6-methylquinolin-5-yl)pyridin-2-yl}pyridine-2-carboxamide]
12 | 703 | CNC(C)C(=O)Nc1cc(-c2c(C)ccc3ncccc23)cc(NC(=O)c2ccn(C)n2)n1 (stereo not shown) [Example 41, 1-methyl-N-{6-[2-(methylamino)propanamido]-4-(6-methylquinolin-5-yl)pyridin-2-yl}-1H-pyrazole-3-carboxamide]
13 | 1190 | CNC(C)C(=O)Nc1cc(-c2c(C)ccc3ncccc23)cc(NC(=O)c2cc(Cl)ccn2)n1 (stereo not shown) [Example 42, 4-chloro-N-{6-[2-(methylamino)propanamido]-4-(6-methylquinolin-5-yl)pyridin-2-yl}pyridine-2-carboxamide]
14 | 2600 | CNC(C)C(=O)Nc1cc(-c2c(C)ccc3ncccc23)cc(NC(=O)c2cccnn2)n1 (stereo not shown) [Example 43, N-{6-[2-(methylamino)propanamido]-4-(6-methylquinolin-5-yl)pyridin-2-yl}pyridazine-3-carboxamide]
15 | 3190 | CNC(C)C(=O)Nc1cc(-c2c(C)ccc3ncccc23)cc(NC(=O)c2ccc3cnccc3c2)n1 (stereo not shown) [Example 44, N-{6-[2-(methylamino)propanamido]-4-(6-methylquinolin-5-yl)pyridin-2-yl}isoquinoline-6-carboxamide]
16 | 4940 | CNC(C)C(=O)Nc1cc(-c2c(C)ccc3ncccc23)cc(NC(=O)c2cn(C)cn2)n1 (stereo not shown) [Example 45, 1-methyl-N-{6-[2-(methylamino)propanamido]-4-(6-methylquinolin-5-yl)pyridin-2-yl}-1H-imidazole-4-carboxamide]
17 | 6330 | CNC(C)C(=O)Nc1cc(-c2c(C)ccc3ncccc23)cc(NC(=O)c2cc(-c3ccccc3)on2)n1 (stereo not shown) [Example 46, N-{6-[2-(methylamino)propanamido]-4-(6-methylquinolin-5-yl)pyridin-2-yl}-5-phenyl-1,2-oxazole-3-carboxamide]
18 | 17 | CNC(C)C(=O)Nc1cc(-c2ccncc2C)cc(NC(=O)c2ccc(Cl)cn2)n1 (stereo not shown) [Example 47, 5-chloro-N-{6-[2-(methylamino)propanamido]-4-(3-methylpyridin-4-yl)pyridin-2-yl}pyridine-2-carboxamide]
19 | 1 | CNC(C)C(=O)Nc1cc(-c2cccc3nc(C)c(C)n23)cc(NC(=O)c2cc3c(cn2)COC3)n1 (stereo not shown) [Example 48, N-(4-{2,3-dimethylimidazo[1,2-a]pyridin-5-yl}-6-[2-(methylamino)propanamido]pyridin-2-yl)-1H,3H-furo[3,4-c]pyridine-6-carboxamide]
20 | 5350 | CNC(C)C(=O)Nc1cc(-c2cccc3nc(C)c(C)n23)cc(NC(=O)Cc2ccccc2)n1 (stereo not shown) [Example 49, N-(4-{2,3-dimethylimidazo[1,2-a]pyridin-5-yl}-6-(2-phenylacetamido)pyridin-2-yl)-2-(methylamino)propanamide]
21 | 348 | CNC(C)C(=O)Nc1cc(-c2cccc3nc(C)c(C)n23)cc(NC(=O)c2cc3ccccc3[nH]2)n1 (stereo not shown) [Example 50, N-(4-{2,3-dimethylimidazo[1,2-a]pyridin-5-yl}-6-[2-(methylamino)propanamido]pyridin-2-yl)-1H-indole-2-carboxamide]
22 | 1 | CNC(C)C(=O)Nc1cc(-c2cccc3nc(C)c(C)n23)cc(NC(=O)c2ccc(OC)cn2)n1 (stereo not shown) [Example 51, N-(4-{2,3-dimethylimidazo[1,2-a]pyridin-5-yl}-6-[2-(methylamino)propanamido]pyridin-2-yl)-5-methoxypyridine-2-carboxamide]
23 | 1 | CNC(C)C(=O)Nc1cc(-c2cncc3ccn(C)c23)cc(NC(=O)c2ccc(Cl)cn2)n1 (stereo not shown) [Example 52, 5-chloro-N-(4-{1-methyl-1H-pyrrolo[3,2-c]pyridin-7-yl}-6-[2-(methylamino)propanamido]pyridin-2-yl)pyridine-2-carboxamide]
24 | 1 | CNC(C)C(=O)Nc1cc(-c2cccc3cncc(C)c23)cc(NC(=O)c2ccc(Cl)cn2)n1 (stereo not shown) [Example 53]
25 | 11 | CNC(C)C(=O)Nc1cc(-c2c(Cl)cnc3ccccc23)cc(NC(=O)c2ccc(Cl)cn2)n1 (stereo not shown) [Example 54, 5-chloro-N-[4-(3-chloroquinolin-4-yl)-6-[2-(methylamino)propanamido]pyridin-2-yl]pyridine-2-carboxamide]

From patent US9249151B2, “Bis-amido pyridines” (Boehringer Ingelheim International GmbH, priority 2013, dated 2016)
